According to paper PMC8011926 (Journal of Medicinal Chemistry, 2020):
Non-standard residues stand in square brackets, D forms with d. Residues, ends and D or L forms follow the SMILES beside them. No end group written: not given here.

How the values were obtained:
NOP receptor = test: NOP bias factor, G protein vs β-arrestin 2 (Black–Leff operational model); conditions: for BIAS FACTOR: supplementary CSV (molecular formula strings), repeats Tables 1–7 without confidence limits; for bias factor (CL95%), NOP: ΔΔlog(τ/KA) G protein minus β-arrestin 2, N/OFQ(1–13)-NH2 as standard unbiased ligand, positive = toward G protein, mean of at least five experiments
Source text: The concentration–response curves of each compound were fitted to the Black–Leff operational model, described by Nagi and Pineyro[70] [drawing 3] where [A] is the agonist concentration, the maximal response of the system is given by Em, n is a fitting parameter for the slope, the affinity of the agonist is represented by the equilibrium dissociation constant of the agonist–receptor complex (KA), and the efficacy of the agonist is defined by τ. τ and KA are descriptive parameters of intrinsic efficacy and binding affinity and may be directly obtained by fitting the experimental data to the operational equation and can be expressed as “transduction coefficients” log(τ/KA). The relative efficiency of agonists producing activation of any pathways can thus be quantified with a “normalized” transduction coefficient, namely Δlog(τ/KA). Finally, the bias factors were calculated as difference between Δlog(τ/KA) values for a given agonist between the pathways (G protein and β-arrestin 2) [drawing 4]
Bias factors are expressed as the mean of at least five independent experiments, and CL95% are indicated. Biased factor is considered to be statistically different from 0 when 0 is not included in CL95%. α values have been statistically analyzed with one-way analysis of variance (ANOVA) followed by the Dunnett post hoc test for multiple comparisons; P values less than 0.05 were considered to be statistically significant.

[1] = target: T1, NOP receptor (NOP-RLuc/Gβ1-RGFP) (Homo sapiens, UniProt P41146); test: NOP/G protein interaction, BRET assay in membranes; assay type: biochemical; conditions: for NOP/G protein pEC50 (CL95%): BRET, membranes (3 μg protein) from HEK293 cells co-expressing NOP-RLuc/Gβ1-RGFP, room temperature, mean of five independent experiments in duplicate, 95% confidence limits; for NOP/G protein α ± sem (intrinsic activity): Emax of ligand / Emax of N/OFQ(1–13)-NH2, mean ± sem of five experiments in duplicate; for NOP/G protein CR (concentration ratio): ratio between EC50 of the ligand and that of the standard agonist N/OFQ(1–13)-NH2
T1 construct: expressed in transfected cells; host or cells: HEK293 (enriched plasma membranes)
Protocol: (§1) For this study, human embryonic kidney (HEK293) cells, permanently co-expressing the different pairs of fusion proteins NOP-RLuc/Gβ1-RGFP and NOP-RLuc/β-arrestin 2-RGFP, and SH-SY5Y cells stably, co-expressing the different pairs of fusion proteins mu-RLuc/Gβ1-RGFP and mu-RLuc/β-arrestin 2-RGFP or delta-RLuc/Gβ1-RGFP and delta-RLuc/β-arrestin 2-RGFP, were used. Cells were prepared and cultured, as described previously.[19],[23] Cells were grown in Dulbecco’s modified Eagle’s medium (DMEM)/HAMS F12 (1:1) supplemented with 10% fetal bovine serum, penicillin G (100 units/mL), streptomycin (100 μg mL^–1), L-glutamine (2 mM), fungizone (1 μg mL^–1), geneticin (G418; 200 μg mL^–1), and hygromycin B (100 μg mL^–1) in a humidified atmosphere of 5% CO2 at 37 °C. For G protein experiments, enriched plasma membrane aliquots from transfected cells were prepared by differential centrifugation; cells were detached with phosphate buffered saline (PBS)/EDTA solution (1 mM, pH 7.4 NaOH), then, after 5 min 500g centrifugation, Dounce-homogenized (30 strokes) in cold homogenization buffer (tris(hydroxymethyl)aminomethane 5 mM, EGTA 1 mM, DTT 1 mM, pH 7.4 HCl) in the presence of sucrose (0.32 M). Three following centrifugations were performed at 10 min 1000g (4 °C), and the supernatants were kept. Two 20 min 24,000g (4 °C) subsequent centrifugations (the second in the absence of sucrose) were performed for separating enriched membranes that, after discarding the supernatant, were kept in ultrapure water at −80 °C.[67] The protein concentration in membrane preparations was determined using the QPRO-BCA kit (Cyanagen Srl, Bologna, IT) and the Ensight (PerkinElmer, Waltham, USA) in the spectrophotometer mode.
(§2) Luminescence in membranes was recorded in 96-well untreated white opaque microplates, while in whole cells, it was recorded in 96-well sterile poly-D-lysine-coated white opaque microplates (PerkinElmer, Waltham, MA, USA) using the luminometer Victor 2030 (PerkinElmer, Waltham, MA, USA). For the determination of receptor/G protein interactions, membranes (3 μg of protein) prepared from cells co-expressing NOP (or mu or delta)/RLuc and Gβ1/RGFP were added to wells in DPBS. For the determination of receptor/β-arrestin 2 interactions, cells co-expressing NOP (or mu or delta)/RLuc and β-arrestin 2/RGFP were plated 24 h before the experiment in poly-D-lysine-treated plates (100,000 cells/well). The cells were prepared for the experiment substituting the medium with PBS with MgCl2 (0.5 mM) and CaCl2 (0.9 mM). Coelenterazine at a final concentration of 5 μM was injected 15 min prior to reading the cell plate. Different concentrations of ligands in 20 μL of PBS–BSA 0.01% were added and incubated 5 min before reading luminescence. […] The BRET ratio was measured 15 min after agonist injection. All experiments were performed at room temperature.
(§3) The pharmacological terminology adopted in this paper is consistent with IUPHAR recommendations.[68] All data are expressed as the mean ± sem of five independent experiments made in duplicate. […] Ligand efficacy was expressed as intrinsic activity (α), calculated as the ratio between the Emax of the ligand and that of the standard agonist. Count per second (CPS) measured for the RGFP and RLuc light emitted using 510(10) and 460(25) filters (PerkinElmer, Waltham, MA), respectively, was used to calculate the BRET ratio. All data are expressed as the stimulated BRET ratio, that is, the ratio between CPS from RGFP and RLuc in the presence of ligands minus the BRET ratio in vehicle-treated wells. […] Concentration–response curves to agonists were fitted to the classical four-parameter logistic nonlinear regression model [drawing 1]
(§4) Curves fitting were performed using PRISM 6.0 (GraphPad Software In., San Diego, USA).

[2] = target: T2, NOP receptor (NOP-RLuc/β-arrestin 2-RGFP) (Homo sapiens, UniProt P41146); test: NOP/β-arrestin 2 interaction, BRET assay in whole cells; assay type: cell-based; conditions: for NOP/β-arrestin 2 pEC50 (CL95%): BRET, whole HEK293 cells co-expressing NOP-RLuc/β-arrestin 2-RGFP, 100,000 cells/well, room temperature, mean of five independent experiments in duplicate, 95% confidence limits; for NOP/β-arrestin 2 α ± sem (intrinsic activity): Emax of ligand / Emax of N/OFQ(1–13)-NH2, mean ± sem of five experiments in duplicate; for NOP/β-arrestin 2 CR (concentration ratio): ratio between EC50 of the ligand and that of the standard agonist N/OFQ(1–13)-NH2
T2 construct: expressed in transfected cells; host or cells: HEK293 (whole cells)
Protocol: as §1, §2, §3, §4

[3] = target: N/OFQ peptide (NOP) receptor fused to Renilla luciferase (UniProt P41146)
N/OFQ peptide (NOP) receptor fused to Renilla luciferase, sequence (P41146 whole entry, the tested form may be a part): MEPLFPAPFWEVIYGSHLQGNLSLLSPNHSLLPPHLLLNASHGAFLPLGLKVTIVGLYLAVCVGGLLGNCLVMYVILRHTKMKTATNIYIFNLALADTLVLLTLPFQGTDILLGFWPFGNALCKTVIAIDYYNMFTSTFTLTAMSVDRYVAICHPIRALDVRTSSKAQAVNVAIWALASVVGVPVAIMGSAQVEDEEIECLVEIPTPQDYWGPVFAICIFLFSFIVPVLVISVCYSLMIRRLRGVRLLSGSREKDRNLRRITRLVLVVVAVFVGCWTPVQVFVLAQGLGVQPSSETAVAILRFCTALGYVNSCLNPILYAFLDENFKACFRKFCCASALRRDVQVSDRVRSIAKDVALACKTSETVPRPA

T2 sequence (P41146 whole entry): as the sequence (P41146 whole entry, the tested form may be a part) above
T1 sequence (P41146 whole entry): as the sequence (P41146 whole entry, the tested form may be a part) above

Row | Molecule | BIAS FACTOR (NOP receptor) | bias factor (CL95%), NOP (NOP receptor) | NOP/G protein pEC50 (CL95%) [1] | NOP/G protein α ± sem (intrinsic activity) [1] | NOP/G protein CR (concentration ratio) [1] | NOP/β-arrestin 2 pEC50 (CL95%) [2] | NOP/β-arrestin 2 α ± sem (intrinsic activity) [2] | NOP/β-arrestin 2 CR (concentration ratio) [2] | less potent than N/OFQ(1–13)-NH2 / reduction of potency, NOP/G protein [1] | pEC50 for promoting the NOP/G protein interaction (BRET, membranes with NOP-RLuc and Gβ1-RGFP) [3] | pEC50 for promoting the NOP/β-arrestin 2 interaction (BRET, cells with NOP-RLuc and β-arrestin 2-RGFP) [3] | concentration ratio (EC50 of the ligand / EC50 of N/OFQ(1–13)-NH2) for promoting the NOP/G protein interaction (BRET, membranes); concentration–response curve incomplete [3]
1 | FGGFTGARKSARA-NH2 [Compound 11, [Ala^13]N/OFQ(1–13)-NH2] | -0.48 | –0.48 (−1.14–0.18) | 7.91 (7.24–8.59) | 0.96 ± 0.06 | 8 | 7.88 (7.75–8.01) | 1.03 ± 0.05 | 2 | – | – | – | –
2 | FGGFTGARASARK-NH2 [Compound 8, [Ala^9]N/OFQ(1–13)-NH2] | -0.15 | –0.15 (−0.79–0.49) | 8.14 (6.88–9.41) | 0.97 ± 0.04 | 5 | 7.77 (7.43–8.11) | 1.03 ± 0.07 | 3 | – | – | – | –
3 | FGGFTGARKAARK-NH2 [Compound 9, [Ala^10]N/OFQ(1–13)-NH2] | -0.08 | –0.08 (−0.67–0.50) | 9.25 (7.82–10.68) | 0.94 ± 0.04 | 0.35 | 8.43 (7.91–8.95) | 1.00 ± 0.04 | 0.68 | – | – | – | –
4 | C[C@H](NC(=O)CNC(=O)[C@@H](NC(=O)[C@H](Cc1ccccc1)NC(=O)CNC(=O)[C@@H](C)NC(=O)[C@@H](N)Cc1ccccc1)[C@@H](C)O)C(=O)N[C@@H](CCCNC(=N)N)C(=O)N[C@@H](CCCCN)C(=O)N[C@@H](CO)C(=O)N[C@@H](C)C(=O)N[C@@H](CCCNC(=N)N)C(=O)N[C@@H](CCCCN)C(N)=O [Compound 26, [D-Ala^2]N/OFQ(1–13)-NH2] (H-F[dA]GFTGARKSARK-NH2) | 0.20 | 0.20 (−0.26–0.66) | 7.57 (7.28–7.86) | 1.03 ± 0.03 | 13 | 7.16 (6.94–7.34) | 0.95 ± 0.05 | 13 | approximately 10 fold | – | – | –
5 | [DThr^5]N/OFQ(1–13)-NH2 [Compound 14] | – | – | crc incomplete | – | – | inactive | – | – | – | – | – | –
6 | [D-Phe^3]N/OFQ(1–13)-NH2 (FG[dF]FTGARKSARK-NH2; N-terminus assumed; SMILES C[C@H](NC(=O)CNC(=O)[C@@H](NC(=O)[C@H](Cc1ccccc1)NC(=O)[C@@H](Cc1ccccc1)NC(=O)CNC(=O)[C@@H](N)Cc1ccccc1)[C@@H](C)O)C(=O)N[C@@H](CCCNC(=N)N)C(=O)N[C@@H](CCCCN)C(=O)N[C@@H](CO)C(=O)N[C@@H](C)C(=O)N[C@@H](CCCNC(=N)N)C(=O)N[C@@H](CCCCN)C(N)=O) [Compound 25] | – | – | inactive | – | – | inactive | – | – | – | – | – | –
7 | [Cys(X)^14]N/OFQ(1-14)-NH2 [Compound 49] (chain 1 FGGFTGARKSARKC; chain 2 KKKKKK) [(Lys)6 moiety] | – | – | 10.06 (9.79-10.34) | – | – | 8.22 (8.03-8.40) | – | – | – | – | – | –
8 | FGGFTGARKSAAK-NH2 [Compound 10, [Ala^12]N/OFQ(1–13)-NH2] | -0.15 | –0.15 (−0.78–0.49) | 7.31 (6.41–8.22) | 0.91 ± 0.04 | 31 | 6.85 (6.57–7.14) | 0.99 ± 0.05 | 26 | – | – | – | –
9 | LGGFTGARKSARK-NH2 [Compound 23, [Leu^1]N/OFQ(1–13)-NH2] | -0.08 | –0.08 (−0.53–0.37) | 8.19 (7.88–8.51) | 1.06 ± 0.02 | 3 | 7.87 (7.69–8.04) | 1.04 ± 0.06 | 3 | – | – | – | –
10 | FGGFTAARKSARK-NH2 [[Ala^6]N/OFQ(1–13)-NH2] | – | – | – | – | – | – | – | – | – | 7.66 -log10 M | 7.1 -log10 M | –
11 | FGGFTGARASARK-NH2 [[Ala^9]N/OFQ(1–13)-NH2] | – | – | – | – | – | – | – | – | – | 8.14 -log10 M | 7.77 -log10 M | –
12 | FGGFTGAAKSARK-NH2 [[Ala^8]N/OFQ(1–13)-NH2] | – | – | – | – | – | – | – | – | – | – | – | 1000
13 | FGGFAGARKSARK-NH2 [[Ala^5]N/OFQ(1–13)-NH2] | – | – | – | – | – | – | – | – | – | 7.12 -log10 M | 6.13 -log10 M | –
